Test results: patent US20250270222A1, “AP2 ASSOCIATED KINASE 1 INHIBITORS AND USES THEREOF” (Satellos Bioscience Inc., priority 2023, published 2025)

Key:
Format in all cases: biochemical
[1] = target: BIKE (amino acids S38-E345) (K320A, K321A) (Homo sapiens (Human), UniProt Q9NSY1, K320A/K321A); assay: BIKE pSENs assay
Protocol: The recombinant proteins were independently expressed in Esherichia coli BL21(DE3) cells cultured in Luria-Bertani (LB) medium until OD600 reached 0.6-0.8, then cooled to 15° C., and supplemented with 0.5 mM isopropyl 1-thio-D-galactopyranoside (IPTG) induce protein expression 16 h. Cells were harvested and resuspended in lysis buffer (50 mM HEPES pH 7.5, 500 mM NaCl, 5 mM imidazole, 5% glycerol, 0.5 mM Tris (2-carboxyethyl) phosphine (TCEP), cOmplete Protease Inhibitor Tablet (Roche)) and lysed by microfluidics high pressure homogenizer (UH-06, Union-Biotech). Proteins were purified using Ni-Affinity chromatography (His FF column, Bestchrom) and eluted stepwise in binding buffer with 20-300 mM imidazole. Removal of the hexahistidine tag was performed at 4° C. overnight using recombinant TEV protease and reacted with BirA to obtain the corresponding biotinylated-AAK1. BIKE or GAK proteins. Further separated in the reverse Strep column (Strep-Tactin® XT, IBA). The Biotin elution sample was collected containing untagged biotinylated protein was then purified by Ion-exchange chromatography (Mono Q 10/100 GL, Cytiva) and Size-exclusion chromatography (HiLoad 16/600 Superdex 200 pg, Cytiva). The pure protein was stored in a storage buffer 50 mM HEPES (pH 7.5), 300 mM NaCl, 5% glycerol at −80° C. Protein were characterized by SDS-PAGE. LC-MS and aSEC.
BIKE protein was dissolved at 20 nM in 1× enzyme solution (50 mM HEPES pH7.5, 10 mM MgCl2, 1 mM DTT, 1% glycerol, 0.5 mM EGTA, 0.01% Briji35, 0.02% BSA) and 12.5 ul was incubated with 250 nl DMSO or 250 nl compound in DMSO at 25° C. for 15 min. The reaction was started by addition of 12.5 ul of 30 uM AQT0759 (Assayquant, CSKS-AQT0759B) and 40 uM ATP which were diluted in 1× substrate dilution buffer (50 mM HEPES pH7.5, 10 mM MgCl2. 1 mM DTT, 1% glycerol, 0.5 mM EGTA, 0.01% Briji35).

[2] = target: GAK (amino acids Q25-N335) (Homo sapiens (Human), UniProt O14976); assay: GAK pSENs assay
Sequence of GAK (amino acids Q25-N335) (O14976 25-335): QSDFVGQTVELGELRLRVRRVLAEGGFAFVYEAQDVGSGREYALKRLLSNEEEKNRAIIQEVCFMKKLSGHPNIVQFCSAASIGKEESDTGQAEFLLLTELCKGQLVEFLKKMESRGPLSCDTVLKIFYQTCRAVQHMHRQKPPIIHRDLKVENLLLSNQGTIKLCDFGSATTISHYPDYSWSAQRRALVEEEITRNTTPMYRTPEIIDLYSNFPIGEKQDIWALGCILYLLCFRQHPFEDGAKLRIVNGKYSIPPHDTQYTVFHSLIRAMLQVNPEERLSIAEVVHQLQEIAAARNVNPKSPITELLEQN

[3] = target: AAK1 (amino acids T27-A365) (Homo sapiens (Human), UniProt Q2M2I8); assay: AAK1 pSENs assay; conditions: ratio of AAK1 pSENs activity to GAK pSENs activity
Sequence of AAK1 (amino acids T27-A365) (Q2M2I8 27-365): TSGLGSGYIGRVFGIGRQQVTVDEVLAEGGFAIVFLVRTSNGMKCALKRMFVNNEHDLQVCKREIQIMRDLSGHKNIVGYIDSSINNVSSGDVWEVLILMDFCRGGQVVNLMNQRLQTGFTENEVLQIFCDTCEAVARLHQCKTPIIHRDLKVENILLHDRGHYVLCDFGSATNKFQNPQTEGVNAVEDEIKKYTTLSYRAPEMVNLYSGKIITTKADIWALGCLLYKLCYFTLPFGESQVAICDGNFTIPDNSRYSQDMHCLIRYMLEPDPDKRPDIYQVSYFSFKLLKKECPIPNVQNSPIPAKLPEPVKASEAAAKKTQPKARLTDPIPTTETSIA
Summary of the method: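 Untagged, biotinylated E. coli-expressed AAK1 at 20 nM preincubated with compound 15 min at 25° C in HEPES pH 7.5 buffer with 10 mM MgCl2 and 1 mM DTT. Reaction started with AQT0759 and ATP, added as 30 uM and 70 uM solutions in equal volume.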

Sequence of BIKE (amino acids S38-E345) (K320A, K321A) (Q9NSY1 38-345 K320A/K321A): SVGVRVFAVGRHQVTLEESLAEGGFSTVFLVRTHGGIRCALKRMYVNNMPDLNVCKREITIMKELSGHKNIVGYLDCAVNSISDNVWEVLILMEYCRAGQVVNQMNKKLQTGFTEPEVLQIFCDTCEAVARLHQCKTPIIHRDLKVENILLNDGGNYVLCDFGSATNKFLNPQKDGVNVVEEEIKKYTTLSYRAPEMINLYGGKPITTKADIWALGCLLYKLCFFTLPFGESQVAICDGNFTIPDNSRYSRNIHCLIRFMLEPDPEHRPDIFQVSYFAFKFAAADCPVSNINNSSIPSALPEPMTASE

SMILES | IC50 [1] [nM] | IC50 [2] [nM] | AAK1:GAK pSENs Selectivity [3]
COc1cn2ncc(-c3cccnc3OC3CC3)c2nc1N1CCN(C(=O)O[C@H]2CC(=O)N(C)C2)CC1 [Compound I-110-9, [(3S)-1-methyl-5-oxo-pyrrolidin-3-yl]-4-[3-[2-(cyclopropoxy)-3-pyridyl]-6-methoxy-pyrazolo[1,5-a]pyrimidin-5-yl]piperazine-1-carboxylate] | > 1500 | > 1500 | E (E: >1.00)
O=C1C[C@H](OC(=O)N[C@@H]2CCN(c3ccn4ncc(-c5cccnc5OC5CC5)c4n3)C2)CN1 [Compound I-54, [(3S)-5-oxopyrrolidin-3-yl]N-[(3R)-1-[3-[2-(cyclopropoxy)-3-pyridyl]pyrazolo[1,5-a]pyrimidin-5-yl]pyrrolidin-3-yl]carbamate] | > 1500 | > 1500 | C (C: 0.076-0.15)
CN1C[C@@H](OC(=O)N2CCN(c3nc4c(-c5cccnc5OC5CCCCC5)cnn4cc3F)CC2)CC1=O [Compound I-123, [(3S)-1-methyl-5-oxo-pyrrolidin-3-yl]-4-[3-[2-(cyclohexoxy)-3-pyridyl]-6-fluoro-pyrazolo[1,5-a]pyrimidin-5-yl]piperazine-1-carboxylate] | > 1500 | > 1500 | C (C: 0.076-0.15)
COC(=O)N1CC(Oc2ncccc2-c2cnn3ccc(N4CCN(C(=O)O[C@@H]5CC(=O)N(C6COC6)C5)CC4)nc23)C1 [Compound I-85, [(3R)-1-(oxetan-3-yl)-5-oxo-pyrrolidin-3-yl]-4-[3-[2-(1-methoxycarbonylazetidin-3-yl)oxy-3-pyridyl]pyrazolo[1,5-a]pyrimidin-5-yl]piperazine-1-carboxylate] | > 1500 | > 1500 | C (C: 0.076-0.15)
O=C(O[C@H]1CO[C@H]2OCC[C@H]21)N1CCN(c2ccn3ncc(-c4ccncn4)c3n2)CC1 [Compound I-67] | > 1500 | > 1500 | C (C: 0.076-0.15)
C[C@@]1(OC(=O)N[C@@H]2CCN(c3ccn4ncc(-c5cccnc5OC5CC5)c4n3)C2)CCNC1 [Compound I-56, (R)-3-methylpyrrolidin-3-yl ((R)-1-(3-(2-cyclopropoxypyridin-3-yl)pyrazolo[1,5-a]pyrimidin-5-yl)pyrrolidin-3-yl)carbamate] | > 1500 | > 1500 | C (C: 0.076-0.15)
CC(C)Nc1ncccc1-c1cnn2ccc(N3CCN(C(=O)O[C@@H]4CNC(=O)C4)CC3)nc12 [Compound I-47, [(3S)-5-oxopyrrolidin-3-yl]4-[3-[2-(isopropylamino)-3-pyridyl]pyrazolo[1,5-a]pyrimidin-5-yl]piperazine-1-carboxylate] | > 1500 | > 1500 | E (E: >1.00)
N#C[C@@H]1CN(c2ccn3ncc(-c4cccnc4OC4CC4)c3n2)CCN1C(=O)O[C@@H]1CNC(=O)C1 [Compound I-41, (S)-5-Oxopyrrolidin-3-yl (S)-2-cyano-4-(3-(2-cyclopropoxypyridin-3-yl)pyrazolo[1,5-a]pyrimidin-5-yl)piperazine-1-carboxylate] | > 1500 | > 1500 | B (B: 0.016-0.075)
NC(=O)[C@@H]1CN(c2ccn3ncc(-c4cccnc4OC4CC4)c3n2)CCN1C(=O)O[C@@H]1CNC(=O)C1 [Compound I-41-6, (S)-5-Oxopyrrolidin-3-yl-(S)-2-carbamoyl-4-(3-(2-cyclopropoxypyridin-3-yl)pyrazolo[1,5-a]pyrimidin-5-yl)piperazine-1-carboxylate] | > 1500 | > 1500 | B (B: 0.016-0.075)
O=C1NCC[C@@H]1OC(=O)N1CCN(c2ccn3ncc(-c4cccnc4OC4CC4)c3n2)CC1 [Compound I-24, [(3S)-2-Oxopyrrolidin-3-yl]-4-[3-[2-(cyclopropoxy)-3-pyridyl]pyrazolo[1,5-a]pyrimidin-5-yl]piperazine-1-carboxylate] | > 1500 | > 1500 | B (B: 0.016-0.075)
